Legend:
ApoE-knockout mice = assay type: in vivo, mouse; conditions: Western Diet with Sulindac (300 mg/kg) for 17 weeks, examined four weeks after injury; vs control group
Source text: We have developed a new mouse model of studying restenosis, in which the injury of the femoral artery is accomplished by the manipulation of wire stent which is introduced into the femoral artery first and then removed.
Briefly, the mouse is anesthetized with pentobarbital and the femoral artery is exposed by cutting the skin in the femoral region carefully. An angioplastz guide wire obtained from Advanced Cardiovascular Systems, Tameaila, Calif. of approximately 100 mm in length and 0.25 mm in diameter is then carefully inserted into the femoral artery, gently manipulated to simulate the arterial revascularization procedures used in humans, and removed. The bleeding is stopped by ligation. The skin fold is restored by sutures.
By one month after injury maximum restenosis is measured is achieved. The degree of restenosis is measured by two indices, the intima/media (I/M) ratio and the percentage of lumenal narrowing. […]
Thirty six week old ApoE-knockout mice were used and given the following dietary regimen and treatment: Group 1-western type diet (containing 42% by calories % fat and 0.15% (w/w) cholesterol); Group 2-western type diet plus aspirin at a concentration of 300 mg/kg diet/day and Group 3-western type diet plus Sulindac at a concentration of 300 mg/kg diet/day. […] The body weight was monitored on a weekly basis. […]

ApoE-deficient mice = assay: Atherosclerotic lesions and plasma cholesterol in ApoE-deficient mice on western diet; assay type: in vivo, mouse; conditions: ApoE-deficient mice maintained on a western diet
Source text: The Apo-E deficient mouse is the first mouse model of atherosclerosis with pathology similar to that of human atherosclerosis (Cell 1992, 71:343-353). Serum cholesterol levels in the mice maintained on a chow diet are five times higher than those of control littermates. Apo-E, which is made primarily in the liver, is a surface constituent of lipoprotein particles and a ligand for lipoprotein recognition and clearance by lipoprotein receptors (Science 1996, 272:685-688). ApoE-deficient mice have delayed clearance of lipoproteins, and on a low-cholesterol, low-fat diet, their cholesterol levels reach 400 to 600 mg/dl as a result of accumulation of chylomicron and very low-density lipoprotein (VLDL) remnants enriched in esterified and free cholesterol (Circulation 1993, 88:A9). These mice develop not only fatty streaks but also widespread fibrous plaque lesions at vascular sites typically affected in human atherosclerosis (Arterioscier. Thromb. 1994, 14;1873). Lesions form at the base of the aorta and the lesser curvature of the thoracic aorta, at the branch points of the carotid, intercostal, mesenteric, renal and iliac arteries, and in the proximal coronary, carotid, femoral, subclavian, and brachiocephalic arteries. Lesions begin at 5 to 6 weeks of age with monocyte attachment to the endothelium in lesion-prone areas and transendothelial migration. Fatty streak lesions begin to appear at 10 weeks, and intermediate lesions containing foam cells and spindle-shaped smooth muscle cells appear at 15 weeks. Fibrous plaques appear after 20 weeks and consist of a necrotic core covered by a fibrous cap of smooth muscle cells surrounded by elastic fibers and collagen. In older mice, fibrous plaques progress. In some advanced lesions there is partial destruction of underlying medial cells with occasional aneurysm formation, and in others calcification occurs in the fibrous tissue. Extensive fibro-proliferation can narrow the lumen, even to the point of occlusion of vessels.
Atherosclerosis can be exacerbated by a high-cholesterol or high-fat diet. This effect is mimicked in the ApoE-deficient mice when these mice are fed a western-type diet as described below in Section 6.
The Apolipoprotein E knock-out mouse model is a valuable animal model to test the effect of NSAIDs on apoptosis, proliferation, quiescence, migration and differentiation of cells that contribute to atherosclerosis. ApoE is an apoprotein on the surface of atherogenic lipoproteins that serves as a ligand for certain receptors in key tissues. ApoE-induced signaling via these receptors, particularly by the hepatic LDL receptor, induces the removal of ApoE-containing lipoprotein particles from the plasma. […]

[1] = test system: HT-29 human colon adenocarcinoma cells; conditions: cited from earlier work
[2] = test system: HCT-15 cultured colon cancer cell line; conditions: Biochem. Pharmacol. 1996, 52:237-245; cited from earlier work
cyclooxygenase = conditions: Adv. Drug Res. 1977, 12:90-245; cited from earlier work

| Structure (SMILES) | arterial narrowing after mechanical arterial injury (ApoE-knockout mice) | smooth muscle cell proliferation after mechanical arterial injury (ApoE-knockout mice) | development of atherosclerotic lesion / atherosclerotic index (ApoE-deficient mice) | level of cholesterol in the plasma (ApoE-deficient mice) | morphology of HT-29 cells [1] | proliferation of HT-29 cells [1] | antiproliferative effect [2] | inhibition of cyclooxygenase (cyclooxygenase) |
| --- | --- | --- | --- | --- | --- | --- | --- | --- |
| CC1=C(CC(=O)O)c2cc(F)ccc2/C1=C\c1ccc([S+](C)[O-])cc1 (stereo not drawn) [Sulindac] | narrowing of the artery was not as marked | much less proliferation of smooth muscle cells | significantly inhibited | reduced the level of cholesterol in the plasma | altered morphology | reduced proliferation | antiproliferative effect independent of prostaglandin synthesis | – |
| CC(=O)Oc1ccccc1C(=O)O [aspirin] | – | – | inhibited the atherosclerotic index but to a lesser extent than observed in the group treated with Sulindac | reduced the level of cholesterol in the plasma | altered morphology | reduced proliferation | – | – |
| COc1ccc2c(c1)c(CC(=O)O)c(C)n2C(=O)c1ccc(Cl)cc1 [indomethacin] | – | – | – | – | altered morphology | reduced proliferation | – | – |
| CN1C(C(=O)Nc2ccccn2)=C(O)c2ccccc2S1(=O)=O [piroxicam] | – | – | – | – | altered morphology | reduced proliferation | antiproliferative effect independent of prostaglandin synthesis | – |
| CSc1ccc(/C=C2/C(C)=C(CC(=O)O)c3cc(F)ccc32)cc1 [sulfide, Sulindac sulfide] | – | – | – | – | – | – | – | potent inhibitory agent of cyclooxygenase |
| CC1=C(CC(=O)O)c2cc(F)ccc2/C1=C\c1ccc(S(C)(=O)=O)cc1 [sulfone, Sulindac sulfone] | – | – | – | – | – | – | – | does not inhibit cyclooxygenase |

Source: US6620853B1, “Methods and compositions for prevention and treatment of restenosis with non-steroidal anti-inflammatory drugs” (Mount Sinai School of Medicine, priority 1998, dated 2003)
